Reference: patent US20110281812A1, “Compounds” (priority 2009, published 2011)
Read-outs that look alike come from different tables or passages of the source.

Assays:
[1] = system: IL-6 production in LPS-stimulated murine spleenocytes; experiment: Inhibition of IL-6 production in LPS-stimulated murine spleenocytes in vitro; type: cell-based; conditions: Mus musculus, 50 μM concentration of the compound, read-out: inhibition of interleukin-6 (IL-6) production
[2] = system: male BALB/cJ mice; experiment: Lung neutrophilia induced by bacterial lipopolysaccharide in male BALB/cJ mice - Method B; type: in vivo; conditions: Mus musculus, ip, 24 h, single dose of 100 mg/kg i.p., vs LPS challenged untreated animals
Procedure: For intraperitoneal administration (i.p.) compounds were dissolved in a final concentration of 10 mg/mL. The required amount of compound was first dissolved in dimethylsulfoxide (DMSO, Sigma) and then diluted with 0.5% (w/v) methyl-cellulose so that the final DMSO concentration was 5% (v/v). The obtained solution was applied in a dose volume of 0.1 mL per 10 g of animal. Therefore, the compound dose was 100 mg/kg.
Male BALB/cJ mice (Charles River, Germany), with an average weight of ˜25 g were randomly grouped (n=8 in testing group, 10 in positive control and 6-8 in negative control). Mice received intraperitoneally (i.p.) a single dose of 100 mg/kg of test compound. Two hours after administration, 0.4 μg of LPS (from Escherichia coli serotype 0111:B4, Sigma), dissolved in sterile saline (0.9% NaCl) in a volume of 50 μL, was intranasally administered to all experimental groups except the negative control group, which received the same volume of vehicle (saline). Animals were sacrificed approximately 24 hours after application of LPS in order to obtain bronchoalveolar lavage fluid (BALF), which was used to determine absolute number of cells and the percentage of neutrophils. […] In some experiments neutrophil levels in BALF were assessed by measurement of concentration of a neutrophil-specific enzyme myeloperoxidase (MPO). Results are then expressed as percentage of decrease in myeloperoxidase (MPO) concentration measured in BALF lysates of treated animals compared to positive control (Mouse MPO ELISA Kit, Hycult biotechnology, Nederlands). For this purpose, BALF was sonicated after addition of 1.5% Triton-X-100 (Pharmacia Biotech) in Milli-Q water and frozen at −80° C. until analysed.

[3] = system: Male BALB/c mice; experiment: Cigarette-smoke-induced lung neutrophilia; type: in vivo; conditions: dose of 30 mg/kg, oral gavage; p<0.05 vs vehicle control
Procedure: Male BALB/c mice (weighing 21-24 g, were randomly grouped, 5 animals per group) were pre-treated with compound (100, 30, 10, 3 and 1 mg/kg body weight) or vehicle (5% DMSO/95% methyl-cellulose 0.5% w/v, positive control) by oral gavage in a volume of 10 mL/kg. 2 hours after compound administration, 10 mice were placed into a plexiglass box (Braintree Scientific, size 10″×4″×4″) with an input port for aerosol and another port for exhaust. Cigarette smoke was introduced through the aerosol port via a peristaltic pump (Masterflex L/S, Digital Economy Drive) set at 40 ml/min. Breathing air was also introduced through the same port via an elbow in the tubing at a rate of 0.4 L/min. With these settings, smoke concentration delivered to the box was approximately 10%. 3 cigarettes (research type 4A1, University of Kentucky Tobacco Institute) were given back-to-back with a 1 min period between each one, when the mice breathed fresh air for one minute. 2 to 3 hours after the first group of cigarettes, 2 additional cigarettes were given, again allowing 1 min between each cigarette. After the last cigarette, the mice were returned to their normal housing. This procedure was carried out for 2 days.
On the 3rd day, mice were euthanized with 0.1 ml Fatal Plus i.p., then bronchoalveolar lavaged with 5×0.7 ml Dulbecco's phosphate-buffered saline (dPBS, in-house Media Prep lab) through a tracheal tube. BALF was spun at 3000 rpm for 10 min, the supernatant discarded, and the cells resuspended with 1 ml dPBS. Slides were made on a cytospin (100 μl fluid, spun at 300 rpm for 5 min), then stained with Diff Quick for differential counts (minimum of 200 cells counted). Total cell counts were performed with a hemocytometer after a dilution with Tuerks solution.
Results are expressed as percentage decrease in number of neutrophils in BALF of treated animals compared to positive control (vehicle treated and smoke challenged animals).

[4] = Neutrophil, read-out: inhibition of number of neutrophils or decrease in myeloperoxidase concentration in BALF
[5] = read-out: inhibition of total cell number in BALF

SMILES	inhibition at 50 µM [1] [%]	inhibition in vivo at 100 mg/kg [2, 4] [%]	inhibition in vivo at 100 mg/kg [2, 5] [%]	reduction of neutrophil number in BALF, statistical significance [3]
CC[C@H]1OC(=O)[C@H](C)[C@@H](O[C@H]2C[C@@](C)(OC)[C@@H](O)[C@H](C)O2)[C@H](C)[C@@H](O[C@@H]2O[C@H](C)C[C@H](N(C)C)[C@H]2OCCCNC(=O)COC)[C@](C)(O)C[C@@H](C)CN(C)[C@H](C)[C@@H](O)[C@]1(C)O [Example 16, 2′-O-{3-[(Methoxyacetyl)amino]propyl}-9-deoxo-9a-methyl-9a-aza-9a-homoerythromycin A]	> 40	> 50	> 50	statistically significantly reduced
CCOCC(=O)NCCCO[C@H]1[C@H](O[C@@H]2[C@@H](C)[C@H](O[C@H]3C[C@@](C)(OC)[C@@H](O)[C@H](C)O3)[C@@H](C)C(=O)O[C@H](CC)[C@@](C)(O)[C@H](O)[C@@H](C)N(C)C[C@H](C)C[C@@]2(C)O)O[C@H](C)C[C@@H]1N(C)C [Example 21, 2′-O-{3-[(Ethyloxyacetyl)amino]propyl}-9-deoxo-9a-methyl-9a-aza-9a-homoerythromycin A]	> 40	> 50	> 50	statistically significantly reduced
